From the supplement of paper PMC3493320

Test system: NCI-H295R
Test: IC50 (antiproliferative, ATP content)
Settings: 48 h
Method in brief: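 Adrenocortical carcinoma cells (1500 per well) were seeded in serum-free ITS-supplemented DMEM in 1536-well plates and cultured overnight. Library compounds were then pin-transferred at 8 final concentrations from 0.6 nM to 46 µM, and plates were kept 48 h at 37 °C, 5% CO2. ATP was read as CellTiter-Glo luminescence after 20 min at room temperature and normalised to vehicle (0%) and positive control (100% inhibition). IC50 came from four-parameter logistic fits; compounds with no concentration response were recorded as above the top dose.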

SMILES	IC50 [µM]
C[C@@H]1CN([C@H]2CC[C@](C#N)(c3ccc(F)cc3)CC2)CC[C@]1(C(=O)O)c1ccccc1.Cl	> 46
COc1cc(N)c(Cl)cc1C(=O)NC1CN2CCC1CC2.Cl (centres undefined)	> 46
Cc1ccc(Cl)c(O)c1	> 46
CCN(CC)CCN1C(=O)CN=C(c2ccccc2F)c2cc(Cl)ccc21	> 46
CN1[C@@H]2CC[C@@H]1CC(OC1c3ccccc3CCc3ccccc31)C2.O=C(O)CC(O)(CC(=O)O)C(=O)O (some centres undefined)	> 46
CCC1(C)CC(=O)NC(=O)C1	> 46
COc1cc(/C=C/C(=O)N2CCN(CC(=O)N3CCCC3)CC2)cc(OC)c1OC.O=C(O)/C=C\C(=O)O	> 46
CCCN1CCC[C@@H]2Cc3n[nH]cc3C[C@H]21	> 46
CN1C(=O)C(C)(C2=CCCCC2)C(=O)N=C1O (centres undefined)	> 46
N=C(N)NCc1cccc(I)c1.N=C(N)NCc1cccc(I)c1.O=S(=O)(O)O	> 46
CS(=O)(=O)O.Cc1ccc2c(c1)c1c3n2CCNC3CCC1 (centres undefined)	> 46
O=C([C@@H]([C@]4=CC=CC=C4)CO)O[C@@H]2C[C@@H]3[C@H]1O[C@H]1[C@@H]([N@+](C)3C)C2	> 46
CCCC(C)(COC(N)=O)COC(=O)NC(C)C (centres undefined)	> 46
COc1ccc(C[C@H](C)NC[C@@H](O)c2ccc(O)c(NC=O)c2)cc1.COc1ccc(C[C@H](C)NC[C@@H](O)c2ccc(O)c(NC=O)c2)cc1.O=C(O)/C=C/C(=O)O	> 46
CN[C@@H]1[C@H](O[C@H]2[C@H](O[C@H]3[C@H](O)[C@@H](O)[C@H](NC(=N)N)[C@@H](O)[C@@H]3NC(=N)N)O[C@@H](C)[C@]2(O)CO)O[C@@H](CO)[C@H](O)[C@H]1O.CN[C@@H]1[C@H](O[C@H]2[C@H](O[C@H]3[C@H](O)[C@@H](O)[C@H](NC(=N)N)[C@@H](O)[C@@H]3NC(=N)N)O[C@@H](C)[C@]2(O)CO)O[C@@H](CO)[C@H](O)[C@H]1O.O=S(=O)(O)O.O=S(=O)(O)O.O=S(=O)(O)O	> 46
C=CCC1(C(C)CCC)C(=O)N=C([S-])NC1=O.[Na+] (centres undefined)	> 46
CCCN1CCC[C@@H]2Cc3nc(N)ncc3C[C@H]21	> 46
F[C@@]([C@](C=C4)(C)C3=CC4=O)2[C@@H](O)C[C@]([C@](C5)([H])[C@@]([H])2CC3)(C)[C@@]1([C@](CO)=O)[C@@H]5OC(C)(C)O1	> 46
Cc1ccc(/N=C/N(C)/C=N/c2ccc(C)cc2C)c(C)c1	> 46
CC(C)Cc1ccc(CC(=O)O)cc1	> 46
CCC(=O)O.CCC(=O)O.O=C(Nc1cccc(C2=NCCN2)c1)Nc1cccc(C2=NCCN2)c1	> 46

SMILES	IC50 [µM]
CN1CCC(OC(=O)C(Oc2ccc(Cl)cc2)Oc2ccc(Cl)cc2)CC1	> 46
CCCNC(C)C(=O)Nc1c(C)csc1C(=O)OC.Cl (centres undefined)	> 46
COc1cnc(NS(=O)(=O)c2ccc(N)cc2)nc1	> 46
O=C1c2ccccc2C(=O)c2ccccc21	> 46
CC[N+](C)(C)Cc1ccccc1Br.Cc1ccc(S(=O)(=O)[O-])cc1	> 46
CCC1(c2ccccc2)C(=O)NC(=O)NC1=O	> 46
CC1CCN(CCCC(=O)c2ccc(F)cc2)CC1	> 46
O=C(O)C1=CC2=C(C=CC=C2)C(CC3=C(O)C(C(O)=O)=CC4=C3C=CC=C4)=C1O.O=C([C@H](NC([C@@H](NC([C@@H](NC([C@@H](NC([C@@H](N[C@]([C@@H](N%11)CCC%11=O)=O)CC%10=CNC=N%10)=O)CC8=CNC9=CC=CC=C89)=O)CO)=O)CC7=CC=C(C=C7)O)=O)CC5=CNC6=CC=CC=C56)N[C@H](C(N[C@H](C(N%12CCC[C@@H]%12[C@@](NCC(N)=O)=O)=O)CCCNC(N)=N)=O)CC(C)C	> 46
O=C(OCc1ccccc1)c1cccnc1	> 46
CCc1ccc(C(=O)C(C)CN2CCCCC2)cc1.Cl (centres undefined)	> 46
COc1ccc2cc([C@H](C)CO)ccc2c1	> 46
O=c1[nH]c(=O)n([C@H]2C[C@H](O)[C@@H](CO)O2)cc1Br	> 46
CNCC(O)c1ccc(O)cc1 (centres undefined)	> 46
CCC(=O)c1c(O)cc(O)cc1O	> 46
CC(=O)Nc1ccc(OC(=O)c2ccccc2OC(C)=O)cc1	> 46
CC(C)[C@@H](C)/C=C/[C@@H](C)[C@H]1CC[C@H]2/C(=C/C=C3\C[C@@H](O)CC[C@@H]3C)CCC[C@]12C	> 46
O=C(O)CCCCC1CCSS1 (centres undefined)	> 46
Cc1cn[nH]c1	> 46
O=[C@]([C@@H]3N([C@@H]2SC(C)3C)C([C@H]2NC([C@@H](C1=CC=C(C=C1)O)N)=O)=O)O	> 46
O=c1oc2c(O)c(O)cc3c(=O)oc4c(O)c(O)cc1c4c23	> 46

Results, then the compound that gave them:

IC50 [µM]	SMILES
> 46	CC1Cc2ccccc2N1NC(=O)c1ccc(Cl)c(S(N)(=O)=O)c1 (centres undefined)
> 46	COc1ccnc(CS(=O)c2nc3cc(OC(F)F)ccc3[nH]2)c1OC (centres undefined)
> 46	C=CCn1c(=O)n([C@@H]2O[C@H](CO)[C@@H](O)[C@H]2O)c2nc(N)[nH]c(=O)c21
> 46	CC(C)[C@H](N)C(=O)OCCOCn1cnc2c(=O)[nH]c(N)nc21.Cl
> 46	CC1(C)NC(=O)N(c2ccc([N+](=O)[O-])c(C(F)(F)F)c2)C1=O
> 46	CCCCCCOc1ccccc1C(N)=O
> 46	CN(C)CCn1nnnc1SCC1=C(C(=O)O)N2C(=O)[C@@H](NC(=O)Cc3csc(N)n3)[C@H]2SC1.Cl.Cl
> 46	Cc1cn([C@H]2C[C@H](F)[C@@H](CO)O2)c(=O)[nH]c1=O
> 46	O=C1CCC(c2ccccc2)(C2CCN(Cc3ccccc3)CC2)C(=O)N1 (centres undefined)
> 46	O=C(O)C=CC(=O)Nc1ccc(S(=O)(=O)Nc2nccs2)cc1
> 46	CC[C@]12CCCN3CCc4c(n(c5ccccc45)[C@@](O)(C(=O)OC)C1)[C@@H]32
> 46	CN/C(=C\[N+](=O)[O-])NCCSCc1ccc(CN(C)C)o1
> 46	CCC(=O)[C@@]1(C)[C@H](C)C[C@H]2[C@@H]3CCC4=CC(=O)C=C[C@]4(C)[C@H]3[C@@H](O)C[C@@]21C
> 46	CN(C)[C@@H]1C(O)=C(C(N)=O)C(=O)[C@@]2(O)C(O)=C3C(=O)c4c(O)cccc4[C@@](C)(O)[C@H]3C[C@@H]12.Cl
> 46	CN(c1nccc(=O)[nH]1)C1CCN(c2nc3ccccc3n2Cc2ccc(F)cc2)CC1
> 46	O=C([C@@H]([C@]1=CC=CC=C1)N=C)N[C@@](C2=O)([H])[C@@](N2[C@H]3[C@@]([O-])=O)([H])SC3(C)C.[Na+]
> 46	CC(=O)Oc1ccc(C2(c3ccc(OC(C)=O)cc3)C(=O)Nc3ccccc32)cc1
> 46	CC(O)COc1ccccc1 (centres undefined)
> 46	CCC1NC(=O)c2cc(S(N)(=O)=O)c(Cl)cc2N1 (centres undefined)
> 46	NS(=O)(=O)c1cc2c(cc1C(F)(F)F)NCNS2(=O)=O
> 46	N[C@@H](Cc1ccc(O)c(O)c1)C(=O)O
> 46	CC(C)NCC(O)c1ccc2ccccc2c1 (centres undefined)
> 46	COc1ccc2[nH]cc(CCNC(C)=O)c2c1
> 46	NC(=O)CC[C@@H](N)C(=O)O
> 46	CCCCC(C)(O)C/C=C/[C@H]1[C@H](O)CC(=O)[C@@H]1CCCCCCC(=O)OC (some centres undefined)
> 46	CN1CCCC(CC2c3ccccc3Sc3ccccc32)C1.Cl (centres undefined)
> 46	CCN(CC)CCSC(=O)C(c1ccccc1)c1ccccc1

IC50 [µM]	SMILES
> 46	CCN(CC)CCNC(=O)c1cc(Cl)c(N)cc1OC
> 46	Cl.NCCS
> 46	OC(C)=O.NC(CNC([C@H](CCCNC(N)=N)N[C@]([C@@H]1CCCN1[C@]([C@H](CSSCCC(N[C@@H](CC4=CC=C(O)C=C4)C3=O)=O)NC([C@H](CC(N)=O)NC([C@@H](NC([C@@H](N3)CC2=CC=CC=C2)=O)CCC(N)=O)=O)=O)=O)=O)=O)=O
> 46	CN(C)CCOC(=O)COc1ccc(Cl)cc1.Cl
> 46	CC(C)(C)NCC(O)CSc1nc(-c2ccc(C(N)=O)s2)cs1.Cl (centres undefined)
> 46	CC(=O)NO
> 46	N[C@@H](CCC(=O)N[C@@H](CS)C(=O)NCC(=O)O)C(=O)O
> 46	Cc1ncc([N+](=O)[O-])n1CC(C)O (centres undefined)
> 46	Nc1ccc(S(=O)(=O)Nc2ccnn2-c2ccccc2)cc1
> 46	CC(=O)Nc1ccc(S(=O)(=O)Nc2ccc([N+](=O)[O-])cc2)cc1
> 46	CC[C@H]1OC(=O)[C@H](C)[C@@H](O[C@H]2C[C@@](C)(OC)[C@@H](O)[C@H](C)O2)[C@H](C)[C@@H](O[C@@H]2O[C@H](C)C[C@H](N(C)C)[C@H]2O)[C@](C)(O)C[C@@H](C)C(=O)[C@H](C)[C@@H](O)[C@]1(C)O
> 46	Nc1ccc(C(=O)[O-])c(O)c1.[Na+]
> 46	Cc1ccccc1N1C(=O)c2cc(S(N)(=O)=O)c(Cl)cc2NC1C (centres undefined)
> 46	Cc1cc(CC(=O)O)c(C)n1-c1ccc(Cl)cc1
> 46	CCN(CC)C(=S)[S-].[Na+]
> 46	Cl.Cl.O=C(O)COCCN1CCN(C(c2ccccc2)c2ccc(Cl)cc2)CC1 (centres undefined)
> 46	CC(C)[C@@H](N)C(=O)O
> 46	CCCCc1nc(Cl)c(CO)n1Cc1ccc(-c2ccccc2-c2nnn[nH]2)cc1
> 46	O=C1NS(=O)(=O)c2ccccc21
> 46	CCN(CC)CCOc1ccc2c(c1)C(=O)c1cc(OCCN(CC)CC)ccc1-2
> 46	COc1ccc(NS(=O)(=O)c2ccc(N)cc2)nn1
> 46	CN(C)CCN1C(=O)c2ccccc2N(C)c2ccccc21.Cl
> 46	COc1nc(C)nc(Cl)c1NC1=NCCN1
> 46	CCCCCCCCCCCCCCCCCC(=O)OC[C@@H](O)[C@H]1OC[C@H](O)[C@H]1O
> 46	O=NN(CCCl)C(=O)NC1CCCCC1
> 46	[O]=[Bi][O][Bi]=[O]
